Entries after “also recorded” stand apart in the source; their conditions may differ.
Each compound was assayed against protein kinase (assay: HTS ATP-utilizing enzyme assay, off-chip mobility-shift format (Caliper HTS 250)). Settings: kinase(s) for which the compound exhibits protein kinase inhibitory activity; test compound 10 μM; active = greater than three-sigma from the mean activity of inactive compounds.
Format: biochemical, human
Description: The following procedures describe the reagent and plate preparation for a HTS of an ATP-utilizing enzyme, such as a protein kinase, run in an off-chip mobility-shift assay format. The following provides an HTS protocol for running a protein kinase HTS screen on a Caliper HTS 250 microfluidics system. The following parameters are dependent on the protein kinase used and can be determined by one skilled in the art as part of a typical assay development process. For example, the peptide substrate used can be identified from the current literature, by screening a peptide library of potential protein kinase substrates, or by other applicable means accepted in the field.
The following table provides typical screen assay parameters appropriate for a Caliper HTS 250 microfluidics system.
The reagents and buffers listed in the following table are generally applicable for developing and running an HTS screen on a human protein kinase using the Caliper HTS 250 system.
The following reagents were prepared using the previously described buffers.
A 2× Master Buffer solution was prepared by combining 200 mL of 1 M HEPES, pH 7.5, 2 mL of 10% Triton X-100, 20 mL of 10% BSA, and 778 mL of H2O.
Assays to determine the kinase inhibitory activity of chemical entities of the present disclosure were performed using a Caliper HTS 250 microfluidics device, Greiner U-bottom assay plates, a Multidrop for transfer of reagents, and Biomek FX (AMNCBM03) software. Initially, 2.4 μL of a 1 mM solution of a test compound in 100% DMSO was added to a well of the Greiner U-bottom plate. A single Greiner U-bottom plate having 24×16 wells could include multiple test compounds. […] Using the Biomek FX, 10 μL of 0.5 M EDTA was added by the span-8 to wells, indicated as 100% Control and 2.4 μL of 100% DMSO was added by the span-8 to wells, indicated as 0% Control. […] The total reaction volume in each well was 25 μL, and the concentration of the test compound was 10 μM. The assay plate was incubated for 2.5 hrs at 20° C. to 22° C. […] The inhibition of the ATP-utilizing enzyme, such as a particular protein kinase, was determined by measuring the ratio of the peptide substrate to phosphorylated product for each well of the assay plate using the Caliper HTS 250 system.
The use of three-sigma statistical limits represents a conservative method for declaring potential hits among targets. The three-sigma activity, as well as the mean population activity, can be different for each target enzyme.

| SMILES | Kinase |
| --- | --- |
| CCn1c(SCC(=O)N2CCc3ccccc3C2)nnc1-c1cc2ccccc2cc1O | DAPK1; also recorded: AURORA-A |
| CCn1c(SCC(=O)N2CCCc3ccccc32)nnc1-c1cc2ccccc2cc1O | CDK2-cyclinA; also recorded: AURORA-A; also recorded: DAPK1 |
| COc1ccc(OCc2nnc(SCC(=O)N3CCCc4ccccc43)n2-c2ccc(C)cc2)cc1 | LCK |
| NC(=O)c1c(NC(=O)CSc2nnc(-c3ccncc3)n2CC2CCCO2)sc2c1CCCC2 (stereo not drawn) | GSK3-β; also recorded: GSK3-α; also recorded: AURORA-A |
| COCCCn1c(C)nnc1SCC(=O)Nc1ccccc1[N+](=O)[O-] | FYN |
| O=C(CSc1nnc(-c2ccncc2)n1-c1ccc(F)cc1)Nc1nccs1 | GSK3-α; also recorded: GSK3-β; also recorded: CDK2-cyclinE |
| COc1cc([N+](=O)[O-])ccc1NC(=O)CSc1nnc(-c2ccncc2)n1Cc1ccco1 | FYN and PDGFRR-α and FLT-3 |
| O=C(CSc1nnc(-c2ccccc2O)n1Cc1ccccc1)N(c1ccccc1)c1ccccc1 | CDK2-cyclinA; also recorded: AURORA-A |
| O=C(CSc1nnc(CNc2ccc(F)cc2)n1Cc1ccccc1)Nc1cccc(O)c1 | CHEK2 |
| CCn1c(SCC(=O)N(C(C)C)C(C)C)nnc1-c1cc2ccccc2cc1O | c-TAK1 |
| CCn1c(SCC(=O)N2CCCC(C)C2)nnc1-c1ccc(S(=O)(=O)N2CCN(C)CC2)cc1 (stereo not drawn) | FYN |
| CCn1c(COc2cccc3ccccc23)nnc1SCC(=O)NCC1CCCO1 (stereo not drawn) | FYN |
| Cc1ccc([N+](=O)[O-])cc1NC(=O)CSc1nnc(-c2ccc([N+](=O)[O-])cc2)n1C | PDGFRR-α |
| Cc1ccc(NC(=O)CSc2nnc(CNc3cccc(C(F)(F)F)c3)n2-c2ccccc2)cc1 | MAPKAPK-2 |
| Cn1c(SCC(=O)N2c3ccccc3Sc3ccccc32)nnc1-c1cc2ccccc2cc1O | AURORA-A |
| COc1ccc(-c2nnc(SCC(=O)N3CCOCC3)n2-c2ccccc2)cc1OC | AKT1 |
| COc1ccc2nc(NC(=O)CSc3nnc(-c4ccc(O)cc4)n3CC3CCCO3)sc2c1 (stereo not drawn) | GSK3-β; also recorded: PDGFRR-α; also recorded: GSK3-α |

| SMILES | Kinase |
| --- | --- |
| Cn1c(SCC(=O)Nc2nc3c(s2)CCCC3)nnc1-c1ccc(O)cc1 | GSK3-β; also recorded: GSK3-α; also recorded: CDK2-cyclinE |
| Cc1ccc(NCc2nnc(SCC(=O)NCc3ccco3)n2CC2CCCO2)c(C)c1 (stereo not drawn) | PDGFRR-α and FYN |
| Cc1ccc(NCc2nnc(SCC(N)=O)n2CC2CCCO2)cc1Cl (stereo not drawn) | AURORA-A |
| CCOc1ccc(NCc2nnc(SCC(=O)N3CCN(C)CC3)n2-c2ccc(C)cc2)cc1 | FYN and AURORA-A |
| CC1CCN(C(=O)CSc2nnc(Cc3ccccc3)n2-c2cccc(Cl)c2)CC1 | LCK |
| COc1ccc(-n2c(Cc3ccccc3)nnc2SCC(=O)N2c3ccccc3Sc3ccccc32)cc1 | SRC and LCK |
| CCn1c(Cc2ccccc2)nnc1SCC(=O)N1CCCc2ccccc21 | FYN |
| Sc1nnc(CCc2nc3ccccc3[nH]2)n1-c1cccc(Cl)c1 | GSK3-α |
| CCOc1ccc(NCc2nnc(SCC(=O)Nc3cc(C(F)(F)F)ccc3Cl)n2-c2ccc(OC)cc2)cc1 | PAK2 and AURORA-A and FYN |
| Cc1nnc(SCC(=O)Nc2cccc(N)c2)n1-c1ccccc1 | FYN |
| Cn1c(CNc2cccc(C(F)(F)F)c2)nnc1SCC(=O)Nc1ccc2c(c1)OCO2 | AURORA-A |
| COCCn1c(SCC(=O)NCc2ccc3c(c2)OCO3)nnc1-c1cc2ccccc2cc1O | AURORA-A |
| COc1ccc(NCc2nnc(SCC(=O)NCc3ccco3)n2-c2ccccc2OC)cc1 | PDGFRR-α and FYN |
| COC(=O)c1ccccc1NC(=O)CSc1nnc(-c2ccccc2O)n1CCc1ccccc1 | AURORA-A |
| COCCn1c(SCC(=O)Nc2ccccc2C(=O)OC)nnc1-c1cc2ccccc2cc1O | AURORA-A; also recorded: DAPK1 |
| COC(=O)c1ccccc1NC(=O)CSc1nnc(CNc2ccc(F)cc2)n1CC1CCCO1 (stereo not drawn) | AURORA-A |

Results, then the compound that gave them:

| Kinase | SMILES |
| --- | --- |
| GSK3-β; also recorded: GSK3-α | O=C(CSc1nnc(-c2ccc(O)cc2)n1Cc1ccco1)N1CCCc2ccccc21 |
| FYN and AURORA-A and DAPK1 | Cn1c(SCC(=O)N2CCCc3ccccc32)nnc1-c1cc2ccccc2cc1O |
| PDGFRR-α | O=C(CSc1nnc(-c2ccc([N+](=O)[O-])cc2)n1CC1CCCO1)N1CCOCC1 (stereo not drawn) |
| AURORA-A | O=C(CSc1nnc(-c2ccncc2)n1-c1ccc(F)cc1)Nc1cccc(O)c1 |
| MAPKAPK-2 | COc1ccc(-n2c(SCC(N)=O)nnc2-c2ccc(S(=O)(=O)N3CCCC3)cc2)cc1 |
| GSK3-β and GSK3-α and MSK2 | O=C(CSc1nnc(-c2ccc(O)cc2)n1Cc1ccco1)Nc1nccs1 |
| LCK | CC(Sc1nnc(-c2ccc(O)cc2)n1Cc1ccco1)C(=O)Nc1ccc([N+](=O)[O-])cc1 (stereo not drawn) |
| AURORA-A | O=C(CSc1nnc(-c2ccc(O)cc2)n1Cc1ccco1)N1CCc2ccccc21 |
| GSK3-β and GSK3-α and AKT3 | O=C(CSc1nnc(-c2ccncc2)n1Cc1ccco1)Nc1cccc(O)c1 |
| GSK3-α; also recorded: GSK3-β | O=C(CSc1nnc(-c2ccc(O)cc2)n1Cc1ccccc1)N1CCCCC1 |
| AURORA-A; also recorded: CDK2-cyclinE | CCn1c(SCC(=O)Nc2nc3c(s2)CCCC3)nnc1-c1cc2ccccc2cc1O |
| GSK3-β; also recorded: GSK3-α | CCn1c(SCC(=O)Nc2nccs2)nnc1-c1ccc(S(=O)(=O)N2CCCC2)cc1 |
| AURORA-A | CCn1c(SCC(=O)Nc2ccc(C)cc2)nnc1-c1ccc(O)cc1 |
| GSK3-α; also recorded: GSK3-β | Cn1c(SCC(=O)Nc2nccs2)nnc1-c1ccc(S(=O)(=O)N2CCOCC2)cc1 |
| AURORA-A | Cc1ccc(NC(=O)CSc2nnc(-c3ccccc3O)n2-c2ccc(C)cc2)cc1 |
| FYN | CNC(=O)CSc1nnc(-c2cc3ccccc3cc2O)n1C |
| AURORA-A and FYN | Cc1cc(NC(=O)CSc2nnc(-c3cc4ccccc4cc3O)n2C)no1 |
| GSK3-β; also recorded: GSK3-α | Cn1c(SCC(=O)Nc2nccs2)nnc1-c1cc2ccccc2cc1O |
| AURORA-A; also recorded: DYRK2 | CCCOc1ccc(CNC(=O)CSc2nnc(-c3ccc(OC)c(OC)c3)n2C)cc1 |
| AURORA-A | COc1ccc(-c2nnc(SCC(=O)Nc3ccccc3O)n2-c2ccccc2)cc1OC |
| MAPKAPK-2 | Cn1c(SCC(=O)N2CCc3ccccc32)nnc1-c1ccc(N)cc1 |

| Kinase | SMILES |
| --- | --- |
| MSK1 | O=C(CSc1nnc(-c2ccc(O)cc2)n1CC1CCCO1)NCCc1ccccc1 (stereo not drawn) |
| AURORA-A | Cn1c(SCC(=O)N2CCOCC2)nnc1-c1ccc(O)cc1 |
| HCK | Cc1ccc(NC(=O)C(C)Sc2nnc(-c3ccc(O)cc3)n2-c2ccccc2)cc1 (stereo not drawn) |
| AURORA-A | Cc1ccc(NC(=O)CSc2nnc(CNc3ccc(F)cc3)n2CC2CCCO2)cc1 (stereo not drawn) |
| CSK | Cn1c(SCC(=O)Nc2cccc(O)c2)nnc1-c1ccco1 |
| AURORA-A | O=C(CSc1nnc(Cc2ccccc2)n1C1CCCCC1)Nc1cccc(O)c1 |
| AURORA-A | COCCn1c(SCC(=O)Nc2ccccc2F)nnc1-c1cc2ccccc2cc1O |
| PRAK and CDK2-cyclinE and DYRK2 | Cn1c(SCC(=O)Nc2sc3c(c2C#N)CCCC3)nnc1-c1ccc(O)cc1 |
| AURORA-A | Cn1c(SCC(=O)Nc2cccc(O)c2)nnc1-c1ccc(NS(C)(=O)=O)cc1 |
| FYN | COc1ccc(CCNC(=O)CSc2nnc(-c3cc4ccccc4cc3O)n2C)cc1OC |
| AKT1 | CC(=O)c1ccc(NC(=O)CSc2nnc(C)n2-c2ccccc2)cc1 |
| HCK | CCOc1ccc(NC(=O)CSc2nnc(-c3ccc(O)cc3)n2-c2ccccc2)cc1 |
| LCK | CCc1nnc(NC(=O)CSc2nnc(-c3cccc(C)c3)n2CC)s1 |
| AURORA-A | COCCn1c(SCC(=O)Nc2ccc3c(c2)OCO3)nnc1-c1cc2ccccc2cc1O |
| CDK2-cyclinA and CDK5 and CDK2-cyclinE | O=C(CSc1nnc(-c2ccc(O)cc2)n1Cc1ccco1)NCc1ccc2c(c1)OCO2 |
| GSK3-β; also recorded: GSK3-α | O=C(CSc1nnc(-c2ccc(O)cc2)n1-c1ccccc1)NCc1ccco1 |
| GSK3-β; also recorded: GSK3-α | CCOC(=O)c1sc(NC(=O)CSc2nnc(-c3ccc(OC)cc3)n2CCOC)nc1C |
| GSK3-β | CCOC(=O)c1sc(NC(=O)CSc2nnc(Cn3nnc4ccccc43)n2C)nc1C |
| LCK | CCOC(=O)c1c(NC(=O)CSc2nnc(-c3ccccc3O)n2-c2ccc(C)cc2)sc(C(C)=O)c1C |
| AURORA-A and FYN and PDGFRR-α | CCOC(=O)c1c(NC(=O)CSc2nnc(CNc3ccc(OC)cc3)n2C)sc(C(C)=O)c1C |
| GSK3-β; also recorded: GSK3-α | COC(=O)c1sc(NC(=O)CSc2nnc(-c3ccc(NS(C)(=O)=O)cc3)n2C)nc1C |
